Where “and” joins values, the source holds several entries; their conditions need not be identical. Equal entries are not always repeated. Toxic doses and inconclusive results are not listed. Rule for the calls: active = survival T/C of 150% or more; inactive = T/C below 125% in these data.
System: P388 leukemia ip, CD2F1 mice, survival T/C
Experiment: NCI In Vivo Anticancer Drug Screen. Data for tumor model P388 Leukemia (intraperitoneal) in CD2F1 (CDF1) mice
Conditions: endpoint: median survival time, higher = longer survival
Procedure, shortened: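 Mice carrying the transplanted tumor received test compound or vehicle. Survival was recorded in each group, and the value is the treated-group measurement divided by that of the vehicle-treated control group.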

[1] = dose: 12.5 mg/kg/injection, schedule: Q01DX009 (ip), vehicle: water
[2] = dose: 25.0 mg/kg/injection, schedule: Q01DX009 (ip), vehicle: water
[3] = dose: 50.0 mg/kg/injection, schedule: Q01DX009 (ip), vehicle: water
[4] = dose: 100.0 mg/kg/injection, schedule: Q01DX009 (ip), vehicle: other
[5] = dose: 200.0 mg/kg/injection, schedule: Q01DX009 (ip), vehicle: other
[6] = dose: 50.0 mg/kg/injection, schedule: Q01DX009 (ip), vehicle: other
[7] = dose: 100.0 mg/kg/injection, schedule: Q04DX003 (ip), vehicle: other
[8] = dose: 100.0 mg/kg/injection, schedule: Q04DX003 (ip), vehicle: saline with Tween-80
[9] = dose: 200.0 mg/kg/injection, schedule: Q04DX003 (ip), vehicle: other
[10] = dose: 200.0 mg/kg/injection, schedule: Q04DX003 (ip), vehicle: saline with Tween-80
[11] = dose: 400.0 mg/kg/injection, schedule: Q04DX003 (ip), vehicle: saline with Tween-80
[12] = dose: 60.0 mg/kg/injection, schedule: Q01DX005 (ip), vehicle: saline with Tween-80
[13] = dose: 240.0 mg/kg/injection, schedule: Q01DX005 (ip), vehicle: saline with Tween-80
[14] = dose: 50.0 mg/kg/injection, schedule: Q01DX009 (ip), vehicle: saline with Tween-80
[15] = dose: 100.0 mg/kg/injection, schedule: Q01DX009 (ip), vehicle: saline with Tween-80
[16] = dose: 120.0 mg/kg/injection, schedule: Q01DX005 (ip), vehicle: saline with Tween-80

Measured: T/C

FC(F)(F)C(OP(OC(C(F)(F)F)C(F)(F)F)OC(C(F)(F)F)C(F)(F)F)C(F)(F)F
inactive: dose: 50.0 mg/kg/injection, schedule: Q01DX005 (ip), vehicle: saline with Tween-80 101 % of control | dose: 100.0 mg/kg/injection, schedule: Q01DX005 (ip), vehicle: saline with Tween-80 92 % of control | dose: 200.0 mg/kg/injection, schedule: Q01DX005 (ip), vehicle: saline with Tween-80 92 % of control

CCCCCCCCCCCCCCCC[N+](C)(C)CC[S+](C)C
inactive: [1] 96 % of control | [2] 99 % of control | [3] 100 % of control

CCCCN(C)/N=N/c1[nH]ncc1C(=O)OCC
inactive: [4] 120 % of control | [5] 116 % of control

Nc1ccccc1S(=O)(=O)Nc1c(N)[nH]c(=S)[nH]c1=O
inactive: dose: 60.0 mg/kg/injection, schedule: Q01DX005 (ip), vehicle: Klucel (hydroxypropylcellulose) (HPC) 105 % of control | dose: 120.0 mg/kg/injection, schedule: Q01DX005 (ip), vehicle: Klucel (hydroxypropylcellulose) (HPC) 99 % of control | dose: 240.0 mg/kg/injection, schedule: Q01DX005 (ip), vehicle: Klucel (hydroxypropylcellulose) (HPC) 113 % of control

O=CN(c1ccccc1)c1ccccc1
inactive: [6] 95 % of control | dose: 50.0 mg/kg/injection, schedule: Q04DX003 (ip), vehicle: saline with Tween-80 107 % of control | [4] 90 % of control | [7] 91 % of control | [8] 109 % of control | [5] 90 % of control | [9] 87 % of control | [10] 110 % of control | dose: 400.0 mg/kg/injection, schedule: Q01DX009 (ip), vehicle: other 100 % of control | dose: 400.0 mg/kg/injection, schedule: Q04DX003 (ip), vehicle: other 87 % of control | [11] 110 % of control | dose: 800.0 mg/kg/injection, schedule: Q04DX003 (ip), vehicle: saline with Tween-80 97 % of control

COc1ccc(NC(=O)CCC2=CC(=O)CC(c3ccccc3)O2)cc1 (centres undefined)
inactive: [12] 105 % of control | dose: 124.0 mg/kg/injection, schedule: Q01DX005 (ip), vehicle: saline with Tween-80 104 % of control | [13] 104 % of control

O=C(c1ccc(Cl)cc1)C(O)NC(=S)c1ccc(Cl)cc1 (centres undefined)
inactive: [14] 96 % of control | [15] 111 % of control | dose: 200.0 mg/kg/injection, schedule: Q01DX009 (ip), vehicle: saline with Tween-80 113 % of control

CC(Cl)S(N)(=O)=O (centres undefined)
inactive: dose: 50.0 mg/kg/injection, schedule: Q01DX005 (ip), vehicle: saline 105 % of control | dose: 100.0 mg/kg/injection, schedule: Q01DX005 (ip), vehicle: saline 98 % of control | dose: 200.0 mg/kg/injection, schedule: Q01DX005 (ip), vehicle: saline 105 % of control

c1ccccc1
inactive: dose: 0.12 % in 0.5 ml injection vol, schedule: Q01DX009 (ip), vehicle: water 100 % of control | dose: 0.25 % in 0.5 ml injection vol, schedule: Q01DX009 (ip), vehicle: water 102 % of control | dose: 0.5 % in 0.5 ml injection vol, schedule: Q01DX009 (ip), vehicle: water 104 % of control | dose: 1.0 % in 0.5 ml injection vol, schedule: Q01DX009 (ip), vehicle: water 100 % of control | dose: 2.0 % in 0.5 ml injection vol, schedule: Q01DX009 (ip), vehicle: water 100 % of control and 102 % of control | dose: 4.0 % in 0.5 ml injection vol, schedule: Q01DX009 (ip), vehicle: water 99 % of control | dose: 8.0 % in 0.5 ml injection vol, schedule: Q01DX009 (ip), vehicle: water 100 % of control | dose: 16.0 % in 0.5 ml injection vol, schedule: Q01DX009 (ip), vehicle: water 95 % of control

O=Cc1c(Br)n(-c2ccccc2)c2ccccc12
inactive: dose: 100.0 mg/kg/injection, schedule: Q01DX001 (ip), vehicle: Klucel (hydroxypropylcellulose) (HPC) 102 % of control | dose: 200.0 mg/kg/injection, schedule: Q01DX001 (ip), vehicle: Klucel (hydroxypropylcellulose) (HPC) 100 % of control | dose: 400.0 mg/kg/injection, schedule: Q01DX001 (ip), vehicle: Klucel (hydroxypropylcellulose) (HPC) 100 % of control

O=[N+]([O-])c1ccc(-c2nc3ccncc3[nH]2)cc1
inactive: dose: 50.0 mg/kg/injection, schedule: Q01DX009 (ip), vehicle: saline 107 % of control | dose: 100.0 mg/kg/injection, schedule: Q01DX009 (ip), vehicle: saline 104 % of control | dose: 200.0 mg/kg/injection, schedule: Q01DX009 (ip), vehicle: saline 93 % of control

Cc1cnc(NCCCCCCNc2ncc(C)c(-c3ccccc3O)n2)nc1-c1ccccc1O
inactive: [8] 91 % of control | [10] 97 % of control | [11] 91 % of control

CC(=O)OCc1cc[n+](C)cc1
inactive: [1] 100 % of control | [2] 105 % of control | [3] 101 % of control | dose: 100.0 mg/kg/injection, schedule: Q01DX009 (ip), vehicle: water 102 % of control | dose: 200.0 mg/kg/injection, schedule: Q01DX009 (ip), vehicle: water 93 % of control | dose: 400.0 mg/kg/injection, schedule: Q01DX009 (ip), vehicle: water 112 % of control

COc1ccc(CSC(=S)Nc2ccc(SC)c(Cl)c2)cc1
inactive: dose: 50.0 mg/kg/injection, schedule: Q01DX009 (ip), vehicle: suspension in saline 100 % of control | dose: 100.0 mg/kg/injection, schedule: Q01DX009 (ip), vehicle: suspension in saline 108 % of control | dose: 200.0 mg/kg/injection, schedule: Q01DX009 (ip), vehicle: suspension in saline 98 % of control

Cc1cc(Cl)ccc1NC(=O)Oc1ccc(C#N)cc1
inactive: [12] 90 % of control | [16] 90 % of control | [13] 90 % of control

CC(=O)C(=Cc1ccc(C=C(C(C)=O)C(C)=O)cc1)C(C)=O
inactive: [12] 114 % of control | [16] 111 % of control

O=C1CCC(N2C(=O)C3C4CCC(O4)C3C2=O)C(=O)N1 (centres undefined)
inactive: [12] 101 % of control | [16] 94 % of control | [13] 100 % of control

COc1cc(C)c2nc3c(C)c(Cl)ccc3c(Cl)c2c1
inactive: dose: 3.0 mg/kg/injection, schedule: Q01DX005 (ip), vehicle: Klucel + Tween-80 98 % of control | dose: 6.0 mg/kg/injection, schedule: Q01DX005 (ip), vehicle: Klucel + Tween-80 100 % of control | dose: 12.0 mg/kg/injection, schedule: Q01DX005 (ip), vehicle: Klucel + Tween-80 97 % of control | dose: 50.0 mg/kg/injection, schedule: Q01DX005 (ip), vehicle: Klucel + Tween-80 88 % of control

CO[C@H]1/C=C/O[C@@]2(C)Oc3c(C)c(O)c4c(O)c(c(/C=N/N5CCN(C)CC5)c(O)c4c3C2=O)NC(=O)/C(C)=C\C=C\[C@H](C)[C@H](O)[C@@H](C)[C@@H](O)[C@@H](C)[C@H](OC(C)=O)[C@@H]1C
inactive: dose: 25.0 mg/kg/injection, schedule: Q01DX009 (ip), vehicle: other 92 % of control | dose: 25.0 mg/kg/injection, schedule: Q01DX009 (ip), vehicle: saline with Tween-80 100 % of control | dose: 25.0 mg/kg/injection, schedule: Q04DX003 (ip), vehicle: distilled water + Tween-80 106 % of control | dose: 25.0 mg/kg/injection, schedule: Q04DX003 (ip), vehicle: other 99 % of control and 97 % of control | [6] 98 % of control | [14] 100 % of control | dose: 50.0 mg/kg/injection, schedule: Q04DX003 (ip), vehicle: distilled water + Tween-80 105 % of control and 110 % of control | dose: 50.0 mg/kg/injection, schedule: Q04DX003 (ip), vehicle: other 106 % of control and 109 % of control | [4] 89 % of control | [15] 100 % of control | dose: 100.0 mg/kg/injection, schedule: Q04DX003 (ip), vehicle: distilled water + Tween-80 96 % of control and 97 % of control | [7] 107 % of control and 115 % of control | dose: 100.0 mg/kg/injection, schedule: Q04DX003 (ip), vehicle: saline sonified 95 % of control | [5] 107 % of control | dose: 200.0 mg/kg/injection, schedule: Q04DX003 (ip), vehicle: distilled water + Tween-80 106 % of control | [9] 110 % of control | dose: 200.0 mg/kg/injection, schedule: Q04DX003 (ip), vehicle: saline sonified 104 % of control | dose: 400.0 mg/kg/injection, schedule: Q04DX003 (ip), vehicle: distilled water + Tween-80 103 % of control | dose: 400.0 mg/kg/injection, schedule: Q04DX003 (ip), vehicle: saline sonified 109 % of control
